# Test results as given in US20040152666A1, “Methods of reducing complications associated with peritoneal dialysis in patients with diabetes obesity and/or hyperlipidemia” (priority 2002, published 2004).
# Experiments:
# rats = assay: Acute peritoneal dialysis in rats with NAG-based or glucose-based dialysis fluid; assay type: in vivo, rat
# Experimental: Peritoneal transport kinetics as well as blood insulin and glucose levels were evaluated in rats during acute peritoneal dialysis. Peritoneal dialysis fluids tested in the studies described herein were prepared in the laboratory and sterilized by filtration. Electrolyte and buffer compositions of both solutions were identical, similar to those contained in commercially available fluids. Concentrations of the individual solutes were as follows (mmol/l): Na 132, Ca 1.75, Mg 0.75, Cl 102, lactate 35. Glucose or NAG were used as osmotic solutes, both in a concentration of 220 mmol/l. Osmolality of the glucose-based dialysis fluid was 478 mOsm/kg H20 and of the solution containing NAG 476 mOsm/kg H2O; pH of the studied fluids was 7.02 and 7.03, respectively.
# Acute peritoneal dialysis was performed in male Wistar rats (b.w.270-330 g) according to the methods described previously (see ref. 10 below). For 24 hours prior to the experiments, animals were given only drinking water and no food. At the beginning of the study, under ether anesthesia, blood samples were collected from the tail vein and thereafter 20 ml of the dialysis fluid was infused via a polyvinyl catheter (1.2 gauge; Vygon, Helsingborg, Sweden); the catheter was instantly removed after infusion. Thereafter the rats were transferred to individual cages, signs of anesthesia disappeared within 5 minutes. Dialysis fluid dwelled in the peritoneal cavity for 1 hour, 3 hours or 6 hours. 12 animals were studied at each time interval: 6 in the NAG group and 6 in the glucose group. During the dialysis animals were conscious with free access to drinking water but no food. At the end of the dwell time rats were again anesthetized with ether, blood samples were collected from the heart and then animals were sacrificed by exsanguination from heart. Afterwards the peritoneal cavity was opened and the dialysate was collected with a pipette. Dialysate volume was measured by weight. Blood and dialysate samples were centrifuged (1500 rpm for 10 minutes) and serum or dialysate supernatant were stored at −20° C. for further analysis. In dialysate samples drained after 6 hrs dwell cell count was determined in a Neubauer chamber.
# Serum and dialysate samples were analyzed for creatinine (enzymatic test, Analco, Warsaw) and total protein were analyzed using Lowry method (11). Sodium concentration in the unused dialysis fluid and dialysate was measured with flame photometry (Eppendorf, Germany). Glucose concentration in serum was measured with an enzymatic test (Sigma Chemical, St.Louis, Mo., U.S.A.). Insulin concentration in serum was measured with ELISA kit (Mercodia, Uppsala, Sweden). Hyaluronan concentration in the dialysate samples was measured with ELISA (Chugai, Japan). Sodium sieving and permeability coefficient for creatinine were calculated for exchanges with 1 hour dwell. Results are presented as mean±SD. Statistical analysis was performed with Mann-Whitney test for unpaired data. A p value less than 0.05 was considered significant.
# [1] = intraperitoneal infusion of radiolabeled NAG (ref. 19); cited from earlier work
# [2] = test system: human peritoneal mesothelial cells; settings: in vitro, culture medium supplemented with NAG, within six hours (ref. 12); cited from earlier work
smiles,measurement,setting,value
"CC(=O)N[C@H]1C(O)O[C@H](CO)[C@@H](O)[C@@H]1O (stereo partly shown) [NAG, N-acetylglucosamine]",dialysate cell count (intraperitoneal inflammation),"rats; rat, in vivo, ip",945±251 cells/μl
same,dialysate volume compared with glucose-based solution,"rats; rats, 1 and 3 hrs exchange",higher
same,sodium sieving (D/D0),"rats; rats, 1 hour exchange, mean±SD",0.955±0.034
same,increase of blood insulin level after 3 hours dialysis,"rats; rats, 3 hours dialysis, mean±SD",4.5 ± 4.7 pmol/L
same,end dialysate volume,"rats; rats, 6 hour dwell, osmotic solute 220 mmol/l, 20 ml infused, mean±SD",34.5 ± 1.7 mL
same,"peritoneal permeability to total protein, dialysate/serum ratio×1000 (D/S×1000)","rats; rats, 6 hrs dwell, osmotic solute 220 mmol/l, mean±SD",9.7±2.5
same,increase of blood glucose level,"rats; rats, after 1 hour dwell of NAG dialysis fluid",39%
same,"increase in blood insulin level, times weaker than with dialysis fluid containing glucose","rats; rats, after 3 hours dialysis",about 12 times
same,increase of blood glucose level,"rats; rats, after 3 hours dwell of NAG dialysis fluid",54%
same,increase of blood glucose level,"rats; rats, after 6 hours dwell of NAG dialysis fluid",116%
same,hyaluronan concentration in the dialysate,"rats; rats, dialysate after 6 hrs dwell, mean±SD",60.3 ± 7.8 ng/mL
same,"blood glucose concentration, highest observed during dialysis","rats; rats, osmotic solute 220 mmol/l, dwell 1, 3 or 6 hours, mean±SD",91 ± 9 mg/dL
same,increase of blood insulin level (maximal) during dialysis,"rats; rats, osmotic solute 220 mmol/l, mean±SD",5.0 ± 5.4 pmol/L
same,appearance of the tracer in the exhaled air,[1],about 25%
same,appearance of the tracer in urine,[1],about 20%
same,synthesis of hyaluronan,[2],increase within six hours synthesis of hyaluronan
